Assay results as given in US10233188B2, “CDK2/4/6 inhibitors” (priority 2016, dated 2019).

Key:
CDK2/Cyclin E1 = CDK2/Cyclin E1 (Homo sapiens (Human), UniProt P24941); assay: biochemical; conditions: CDK2_Ki (nM), phosphorylated CDK2/Cyclin E1, 150 μM ATP, Morrison tight-binding fit
Protocol: The assay was initiated with the addition of ATP, following a fifteen minutes pre-incubation of enzyme and inhibitor at room temperature in the reaction mixture. The reaction was stopped after 45 minutes at room temperature by the addition of 50 μL of 80 mM EDTA, pH 7.5.

CDK6/Cyclin D1 = CDK6/Cyclin D1 (Homo sapiens (Human), UniProt Q00534); assay: biochemical; conditions: CDK6_Ki (nM), non-phosphorylated CDK6/Cyclin D1, 2 mM ATP, Morrison fit
Sequence of CDK6/Cyclin D1 (Q00534 whole entry): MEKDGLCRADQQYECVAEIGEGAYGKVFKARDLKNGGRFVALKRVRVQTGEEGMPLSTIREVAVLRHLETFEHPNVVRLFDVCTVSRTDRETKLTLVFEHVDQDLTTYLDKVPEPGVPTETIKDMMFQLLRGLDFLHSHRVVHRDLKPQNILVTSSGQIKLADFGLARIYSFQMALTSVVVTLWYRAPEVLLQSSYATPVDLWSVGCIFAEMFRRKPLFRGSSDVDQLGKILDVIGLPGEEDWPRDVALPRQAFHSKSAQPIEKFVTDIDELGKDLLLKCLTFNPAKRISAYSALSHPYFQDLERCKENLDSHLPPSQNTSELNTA
Sequence of CDK6/Cyclin D1 (P24385 whole entry partner): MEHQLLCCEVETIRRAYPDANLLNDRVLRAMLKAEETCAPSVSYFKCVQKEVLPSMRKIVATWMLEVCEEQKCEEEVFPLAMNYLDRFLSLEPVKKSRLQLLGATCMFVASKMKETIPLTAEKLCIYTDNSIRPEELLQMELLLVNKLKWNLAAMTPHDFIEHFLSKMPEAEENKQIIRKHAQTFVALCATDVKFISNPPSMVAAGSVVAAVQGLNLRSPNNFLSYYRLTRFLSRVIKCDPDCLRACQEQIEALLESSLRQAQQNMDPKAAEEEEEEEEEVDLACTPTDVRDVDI

SMILES | Ki (CDK2/Cyclin E1) | Ki (CDK6/Cyclin D1)
COC(C)(C)CNS(=O)(=O)N1CCC(Nc2ncc3cc(C)c(=O)n([C@H]4CCC[C@]4(C)O)c3n2)CC1 (single isomer, unassigned) [Example 99, (+)-4-({8-[(1R*,2R*)-2-hydroxy-2-methylcyclopentyl]-6-methyl-7-oxo-7,8-dihydropyrido[2,3-d]pyrimidin-2-yl}amino)-N-(2-methoxy-2-methylpropyl)piperidine-1-sulfonamide] | 2.88 nM | 14.3 nM
CC[C@@]1(O)CCC[C@H]1n1c(=O)ccc2cnc(NC3CCN(S(C)(=O)=O)CC3)nc21 (single isomer, unassigned) [Example 193, (−)-(8-[(1R*,2R*)-2-ethyl-2-hydroxycyclopentyl]-2-{[1-(methylsulfonyl)piperidin-4-yl]amino}pyrido[2,3-d]pyrimidin-7(8H)-one] | 2.55 nM | 2.27 nM
COCc1cc2cnc(NC3CCN(S(C)(=O)=O)CC3)nc2n([C@H]2CCC[C@H]2C)c1=O [Example 49, 6-(methoxymethyl)-8-[(1S,2R)-2-methylcyclopentyl]-2-{[1-(methylsulfonyl)piperidin-4-yl]amino}pyrido[2,3-d]pyrimidin-7(8H)-one] | 4.43 nM | 1.63 nM
CC1(C)CC(Nc2ncc3cc(CCO)c(=O)n(C4CCCC4)c3n2)CCN1S(C)(=O)=O (single isomer, unassigned; (+)) [Example 162, (+)-8-cyclopentyl-2-{[2,2-dimethyl-1-(methylsulfonyl)piperidin-4-yl]amino}-6-(2-hydroxyethyl)pyrido[2,3-d]pyrimidin-7(8H)-one] | 3.92 nM | 12.3 nM
C[C@@H]1[C@H](O)CCC[C@H]1n1c(=O)ccc2cnc(NC3CCN(S(C)(=O)=O)CC3)nc21 (single isomer, unassigned) [Example 221, (−)-8-[(1S*,2R*,3S*)-3-hydroxy-2-methylcyclohexyl]-2-{[1-(methylsulfonyl)piperidin-4-yl]amino}pyrido[2,3-d]pyrimidin-7(8H)-one] | 0.13 nM | 0.36 nM
C[C@H]1CCC[C@H]1n1c(=O)c(CO)cc2cnc(NC3CCN(S(C)(=O)=O)CC3)nc21 [Example 50, 6-(hydroxymethyl)-8-[(1R,2S)-2-methylcyclopentyl]-2-{[1-(methylsulfonyl)piperidin-4-yl]amino}pyrido[2,3-d]pyrimidin-7(8H)-one] | 0.27 nM | 0.08 nM
C[C@@]1(O)CCC[C@H]1n1c(=O)ccc2cnc(NC3CCN(S(=O)(=O)CC(F)(F)F)CC3)nc21 (single isomer, unassigned) [Example 86, (−)-8-[(1R*,2R*)-2-hydroxy-2-methylcyclopentyl]-2-({1-[(2,2,2-trifluoroethyl)sulfonyl]piperidin-4-yl}amino)pyrido[2,3-d]pyrimidin-7(8H)-one] | 0.45 nM | 1.6 nM
CCS(=O)(=O)N1CCC(Nc2ncc3cc(C)c(=O)n([C@H]4CCC[C@]4(C)O)c3n2)CC1 (single isomer, unassigned) [Example 111, (+)-2-{[1-(ethylsulfonyl)piperidin-4-yl]amino}-8-[(1R*,2R*)-2-hydroxy-2-methylcyclopentyl]-6-methylpyrido[2,3-d]pyrimidin-7(8H)-one] | 2.14 nM | 4.9 nM
CS(=O)(=O)N1CCC(Nc2ncc3cc(N)c(=O)n(C4CCCC4)c3n2)CC1 [Example 28, 6-amino-8-cyclopentyl-2-{[1-(methylsulfonyl)piperidin-4-yl]amino}pyrido[2,3-d]pyrimidin-7(8H)-one] | 1.88 nM | 1.2 nM
C[C@@]1(O)CCC[C@H]1n1c(=O)ccc2cnc(NC3CCN(S(=O)(=O)NC4CCOCC4)CC3)nc21 (single isomer, unassigned) [Example 68, (−)-4-({8-[(1R*,2R*)-2-hydroxy-2-methylcyclopentyl]-7-oxo-7,8-dihydropyrido[2,3-d]pyrimidin-2-yl}amino)-N-(tetrahydro-2H-pyran-4-yl)piperidine-1-sulfonamide] | 0.41 nM | 3.23 nM
C[C@@]1(O)CCC[C@H]1n1c(=O)ccc2cnc(NC3CCN(S(N)(=O)=O)CC3)nc21 (single isomer, unassigned) [Example 183, (−)-4-({8-[(1R*,2R*)-2-hydroxy-2-methylcyclopentyl]-7-oxo-7,8-dihydropyrido[2,3-d]pyrimidin-2-yl}amino)piperidine-1-sulfonamide] | 0.1 nM | 1.99 nM
Cc1cc2cnc(NC3CCN(S(C)(=O)=O)CC3)nc2n([C@@H]2CCC[C@H]2O)c1=O [Example 173, 8-[(1R,2R)-2-hydroxycyclopentyl]-6-methyl-2-{[1-(methylsulfonyl)piperidin-4-yl]amino}pyrido[2,3-d]pyrimidin-7(8H)-one] | 2.95 nM | 3.52 nM

The remaining compounds from weak to strong by Ki (CDK2/Cyclin E1), led by results:

Ki (CDK2/Cyclin E1) | Ki (CDK6/Cyclin D1) | SMILES
7.03 nM | 6.24 nM | C[C@]1(O)CCC[C@@H]1n1c(=O)ccc2cnc(NC3CCN(S(=O)(=O)c4nncs4)CC3)nc21 (single isomer, unassigned) [Example 81, (+)-8-[(1R*,2R*)-2-hydroxy-2-methylcyclopentyl]-2-{[1-(1,3,4-thiadiazol-2-ylsulfonyl)piperidin-4-yl]amino}pyrido[2,3-d]pyrimidin-7(8H)-one]
5.65 nM | 3.62 nM | C[C@]1(O)CCC[C@@H]1n1c(=O)c(CO)cc2cnc(NC3CCN(S(C)(=O)=O)CC3)nc21 (single isomer, unassigned) [Example 186, (+)-6-(hydroxymethyl)-8-[(1R*,2R*)-2-hydroxy-2-methylcyclopentyl]-2-{[1-(methylsulfonyl)piperidin-4-yl]amino}pyrido[2,3-d]pyrimidin-7(8H)-one]
4.18 nM | 0.26 nM | CS(=O)(=O)N1CCC(Nc2ncc3cc(C(F)(F)F)c(=O)n(C4CCCC4)c3n2)CC1 [Example 148, 8-cyclopentyl-2-{[1-(methylsulfonyl)piperidin-4-yl]amino}-6-(trifluoromethyl)pyrido[2,3-d]pyrimidin-7(8H)-one]
2.63 nM | 1.32 nM | CS(=O)(=O)N1CC[C@H](Nc2ncc3cc(N)c(=O)n(C4CCCC4)c3n2)[C@H](F)C1 (single isomer, unassigned; isomer b) [Example 150, 6-amino-8-cyclopentyl-2-{[(3R*,4S*)-3-fluoro-1-(methylsulfonyl)piperidin-4-yl]amino}pyrido[2,3-d]pyrimidin-7(8H)-one-Isomer B]
1.4 nM | 1.94 nM | CS(=O)(=O)N1CC[C@H](Nc2ncc3cc(CCO)c(=O)n(C4CCCC4)c3n2)[C@@H](F)C1 (single isomer, unassigned) [Example 156, (−)-8-cyclopentyl-2-{[(3S*,4S*)-3-fluoro-1-(methylsulfonyl)piperidin-4-yl]amino}-6-(2-hydroxyethyl)pyrido[2,3-d]pyrimidin-7(8H)-one]
1.31 nM | 1.34 nM | Cc1cc2cnc(NC3CCN(S(C)(=O)=O)CC3)nc2n([C@H]2CC[C@H](O)C2)c1=O (single isomer, unassigned) [Example 168, (+)-8-[(1R*,3R*)-3-hydroxycyclopentyl]-6-methyl-2-{[1-(methylsulfonyl)piperidin-4-yl]amino}pyrido[2,3-d]pyrimidin-7(8H)-one]
0.84 nM | 1.1 nM | Cc1cc2cnc(NC3CCN(S(C)(=O)=O)CC3)nc2n([C@@H]2CCC[C@@H](O)C2)c1=O (single isomer, unassigned) [Example 32, (+)-8-[(1R*,3R*)-3-hydroxycyclohexyl]-6-methyl-2-{[1-(methylsulfonyl)piperidin-4-yl]amino}pyrido[2,3-d]pyrimidin-7(8H)-one]
0.55 nM | 2 nM | CS(=O)(=O)N1CCC(Nc2ncc3ccc(=O)n([C@H]4C[C@H](O)CC[C@@H]4F)c3n2)CC1 (single isomer, unassigned) [Example 217, (+)-8-[(1S*,2S*,5R*)-2-fluoro-5-hydroxycyclohexyl]-2-{[1-(methylsulfonyl)piperidin-4-yl]amino}pyrido[2,3-d]pyrimidin-7(8H)-one]
0.27 nM | 1.09 nM | C[C@H]1CCC[C@H]1n1c(=O)c(CC(N)=O)cc2cnc(NC3CCN(S(C)(=O)=O)CC3)nc21 [Example 47, 2-(8-[(1R,2S)-2-methylcyclopentyl]-2-{[1-(methylsulfonyl)piperidin-4-yl]amino}-7-oxo-7,8-dihydropyrido[2,3-d]pyrimidin-6-yl)acetamide]
0.12 nM | 0.85 nM | C[C@@H]1[C@H](O)CC[C@H]1n1c(=O)ccc2cnc(NC3CCN(S(C)(=O)=O)CC3)nc21 (single isomer, unassigned) [Example 201, (−)-8-[(1R*,2S*,3R*)-3-hydroxy-2-methylcyclopentyl]-2-{[1-(methylsulfonyl)piperidin-4-yl]amino}pyrido[2,3-d]pyrimidin-7(8H)-one]
0.1 nM | 1.21 nM | Cn1cc(S(=O)(=O)N2CCC(Nc3ncc4ccc(=O)n([C@@H]5CCC[C@@]5(C)O)c4n3)CC2)cn1 (single isomer, unassigned) [Example 82, (−)-8-[(1R*,2R*)-2-hydroxy-2-methylcyclopentyl]-2-({1-[(1-methyl-1H-pyrazol-4-yl)sulfonyl]piperidin-4-yl}amino)pyrido[2,3-d]pyrimidin-7(8H)-one]
0.09 nM | 0.33 nM | CNS(=O)(=O)N1CCC(Nc2ncc3cc(C)c(=O)n([C@@H]4CCC[C@@]4(C)O)c3n2)CC1 (single isomer, unassigned) [Example 94, (−)-4-({8-[(1R*,2R*)-2-hydroxy-2-methylcyclopentyl]-6-methyl-7-oxo-7,8-dihydropyrido[2,3-d]pyrimidin-2-yl}amino)-N-methylpiperidine-1-sulfonamide]
0.06 nM | 0.06 nM | Cc1cc2cnc(NC3CCN(S(C)(=O)=O)CC3)nc2n([C@@H]2CCC[C@@H]2C)c1=O [Example 37, 6-methyl-8-[(1R,2S)-2-methylcyclopentyl]-2-{[1-(methylsulfonyl)piperidin-4-yl]amino}pyrido[2,3-d]pyrimidin-7(8H)-one]
